Consider 14 compounds from patent publication US9290476B2, “Methylene linked quinolinyl modulators of RORγt” (Janssen Pharmaceutica NV, priority 2012, dated 2016).

Experiment [1] addresses human RORγt ligand binding domain (RORγt LBD) (Homo sapiens (Human), UniProt P51449). Kind of experiment: RORγt ThermoFluor assay (thermal shift binding affinity). Particulars: estimated from thermal shift. The method in brief:
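Thermal shift used 0.065 mg/mL RORγt LBD with 60 μM 1,8-ANS in 100 mM Hepes pH 7.0, 10 mM NaCl, 2.5 mM GSH and 0.002% Tween-20, heated at 1 °C/min. Fluorescence was excited at 380–400 nm and emission read at 500 nm.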

For experiment [2], the target named is human RORγt LBD (Homo sapiens (Human), UniProt P51449). Description: RORγt reporter assay (GAL4-RORγt LBD luciferase in HEK293T cells). Particulars: for IC50 / RORγt reporter Assay, % inhibition @ 6 μM: HEK293T cells; for IC50: 24 hours compound treatment; for inhibition at 6 µM: HEK-293T, read-out: RORγt reporter Assay, % inhibition @ 6 μM, HEK293T cells, 6 μM. It counts as cell-based. The procedure, abridged: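 HEK293T cells transiently co-transfected with GAL4-DBD–wild-type human RORγt LBD (pBIND) and GAL4-responsive firefly luciferase reporter (pGL4.31); renilla luciferase from pBIND normalises transfection/viability. Cells in phenol-red-free DMEM, 5% lipid-reduced FCS, treated with compound 24 h. Firefly/renilla ratio plotted against compound concentration.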

Experiment [3] concerns IL-17 production by CD4 T cells. Kind of experiment: Human Th17 assay (IL-17 production by CD4 T cells under Th17 differentiation). It counts as cell-based. Particulars: human CD4+ T cells, IL-17 after 3 days, read-out: Human Th17 Assay, IC50 μM. The procedure, abridged:
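Healthy-donor peripheral CD4+ T cells (1.5×10^5/well) preincubated 1 h with titrated compound (0.2% DMSO), then differentiated with anti-CD3/CD28 beads, anti-IL4, anti-IFNγ, IL1β, IL23, IL6, TGFβ and IL2 for 3 days at 37 °C. Supernatant IL-17 quantified by MSD electrochemiluminescence against a standard curve; IC50 fitted.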

“And” between values parts separate entries of the source, which are not always exact repeats. Equal entries are not always repeated. Structures can show the parent of a compound that is named as a salt. Where two headings read alike, the source gives them in different places.

human RORγt LBD, sequence (P51449 258-518): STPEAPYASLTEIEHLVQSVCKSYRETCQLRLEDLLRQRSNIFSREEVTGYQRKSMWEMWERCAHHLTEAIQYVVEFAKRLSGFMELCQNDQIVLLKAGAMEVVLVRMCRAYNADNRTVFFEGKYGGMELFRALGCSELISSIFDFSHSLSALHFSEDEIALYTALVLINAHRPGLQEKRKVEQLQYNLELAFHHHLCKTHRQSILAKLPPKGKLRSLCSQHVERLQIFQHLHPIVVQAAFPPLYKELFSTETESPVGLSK
human RORγt ligand binding domain (RORγt LBD), sequence (P51449 other isoform, or with tags, fused parts or gaps): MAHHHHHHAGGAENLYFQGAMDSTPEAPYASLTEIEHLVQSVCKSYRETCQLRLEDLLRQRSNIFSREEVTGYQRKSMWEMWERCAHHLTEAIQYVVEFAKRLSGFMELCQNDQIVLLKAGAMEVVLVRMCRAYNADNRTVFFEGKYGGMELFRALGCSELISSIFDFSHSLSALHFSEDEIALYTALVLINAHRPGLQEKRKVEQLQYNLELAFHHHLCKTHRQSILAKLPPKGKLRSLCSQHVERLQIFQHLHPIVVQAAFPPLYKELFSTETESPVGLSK

With `COc1nc2ccc(C(O)(c3ccc(C(F)(F)F)nc3)c3cncn3C)cc2c(Cl)c1Cc1cc2ccccc2s1` (single isomer, unassigned) [Example 37B, (3-(benzo[b]thiophen-2-ylmethyl)-4-chloro-2-methoxyquinolin-6-yl)(1-methyl-1H-imidazol-5-yl)(6-(trifluoromethyl)pyridin-3-yl)methanol], the Kd in experiment [1] was 44 nM. Moreover, the IC50 in experiment [2] came to 0.16 µM; in experiment [3] (Homo sapiens, CD4+ T, 72 h) it was 0.11 µM. The inhibition at 6 µM in experiment [2] is 99%.

Regarding `Cn1cncc1C(O)(c1ccc(Cl)cc1)c1ccc2nc(C#N)c(Cc3ccc(-n4cccn4)cc3)c(C#N)c2c1` (single isomer, unassigned) [Example 71B, 3-(4-(1H-Pyrazol-1-yl)benzyl)-6-((4-chlorophenyl)(hydroxy)(1-methyl-1H-imidazol-5-yl)methyl)quinoline-2,4-dicarbonitrile], in experiment [1], the dissociation constant (Kd) is 1.6 nM. Besides, the IC50 in experiment [2] and in experiment [3] was 0.011 µM in each case. Besides, the inhibition at 6 µM in experiment [2] turned out to be 105%.

Consider `COc1nc2ccc(C(O)(c3cnnn3C)c3cnc(C)n3C)cc2c(C#N)c1Cc1ccc(C(F)(F)F)cc1` (single isomer, unassigned) [Example 81B, 6-((1,2-Dimethyl-1H-imidazol-5-yl)(hydroxy)(1-methyl-1H-1,2,3-triazol-5-yl)methyl)-2-methoxy-3-(4-(trifluoromethyl)benzyl)quinoline-4-carbonitrile], for which the Kd in experiment [1] was 0.05 nM. Besides, the 50% inhibitory concentration (IC50) in experiment [2] is 0.002 µM and ~0.0002 µM; in experiment [3] (Homo sapiens, CD4+ T, 72 h), 0.0022 µM. Besides, the inhibition at 6 µM in experiment [2] is 104%.

Regarding `COc1nc2ccc(C(O)(c3ccc(C(F)(F)F)nc3)c3cncn3C)cc2c(Cl)c1Cc1cc2ccccc2s1` (single isomer, unassigned) [Example 37C, (3-(benzo[b]thiophen-2-ylmethyl)-4-chloro-2-methoxyquinolin-6-yl)(1-methyl-1H-imidazol-5-yl)(6-(trifluoromethyl)pyridin-3-yl)methanol], in experiment [1], the dissociation constant Kd is 3.5 nM. Also, in experiment [2], the “RORγt reporter Assay, % inhibition @ 6 μM” value is 102% and the midpoint of inhibition, the IC50, lay at 0.11 µM. In addition, the half-inhibitory concentration (IC50) in experiment [3] turned out to be 0.15 µM.

For `Cn1cncc1C(O)(c1ccc(Cl)cc1)c1ccc2nc(Cl)c(Cc3ccc(-n4cccn4)cc3)c(Cl)c2c1` (centres unmarked) [Example 11, (3-(4-(1H-Pyrazol-1-yl)benzyl)-2,4-dichloroquinolin-6-yl)(4-chlorophenyl)(1-methyl-1H-imidazol-5-yl)methanol.TFA], in experiment [1], the dissociation constant Kd was 75 nM. In addition, in experiment [2], half-maximal inhibition (IC50) required 0.16 µM and the inhibition at 6 µM amounted to 104%. Further, the half-maximal inhibitory concentration (IC50) in experiment [3] (Homo sapiens, CD4+ T, 72 h) was determined as 0.3 µM.

As for `CON(C)c1nc2ccc(C(O)(c3ccc(C(F)(F)F)nc3)c3cncn3C)cc2c(Cl)c1Cc1ccc(-n2cccn2)cc1` (single isomer, unassigned) [Example 67C, (3-(4-(1H-pyrazol-1-yl)benzyl)-4-chloro-2-(methoxy(methyl)amino)quinolin-6-yl)(1-methyl-1H-imidazol-5-yl)(6-(trifluoromethyl)pyridin-3-yl)methanol], the Kd in experiment [1] is 57 nM. Also, in experiment [2], the “RORγt reporter Assay, % inhibition @ 6 μM” value is recorded as 101% and the half-inhibitory concentration (IC50) was determined as 0.12 µM. Besides, the IC50 in experiment [3] amounted to 0.1 µM.

For the compound `COc1nc2c(F)cc(C(O)(c3ccc(C(F)(F)F)nc3)c3cncn3C)cc2c(Cl)c1Cc1ccc(-n2cccn2)cc1` (single isomer, unassigned) [Example 58B, (3-(4-(1H-pyrazol-1-yl)benzyl)-4-chloro-8-fluoro-2-methoxyquinolin-6-yl)(1-methyl-1H-imidazol-5-yl)(6-(trifluoromethyl)pyridin-3-yl)methanol], the equilibrium dissociation constant (Kd) in experiment [1] is 14 nM. Further, in experiment [2], the half-inhibitory concentration (IC50) amounted to 0.055 µM and the inhibition at 6 µM came out at 103%. Further, in experiment [3] (Homo sapiens, CD4+ T, 72 h), the IC50 came to 0.1 µM.

As to `Cc1ccc(C(O)(c2ccc3nc(C#N)c(Cc4ccc(C(F)(F)F)cc4)c(C#N)c3c2)c2cnnn2C)c(C)n1` (single isomer, unassigned) [Example 88C, 6-((2,6-Dimethylpyridin-3-yl)(hydroxy)(1-methyl-1H-1,2,3-triazol-5-yl)methyl)-3-(4-(trifluoromethyl)benzyl)quinoline-2,4-dicarbonitrile], in experiment [1], the Kd was 0.04 nM. Besides, the “RORγt reporter Assay, % inhibition @ 6 μM” value in experiment [2] was determined as 95%. The IC50 in experiment [2] was determined as 0.0088 µM; in experiment [3] (Homo sapiens, CD4+ T, 72 h), 0.0028 µM.

Regarding `COc1nc2ccc(C(O)(c3ccc(F)cc3)c3cncn3C)cc2c(Cl)c1Cc1ccc(S(C)(=O)=O)cc1` (single isomer, unassigned) [Example 54C, (4-chloro-2-methoxy-3-(4-(methylsulfonyl)benzyl)quinolin-6-yl)(4-fluorophenyl)(1-methyl-1H-imidazol-5-yl)methanol], the Kd in experiment [1] was 23 nM. For the same compound, in experiment [2], the “RORγt reporter Assay, % inhibition @ 6 μM” value is listed as 93% and half-maximal inhibition (IC50) required 0.098 µM. In addition, the IC50 in experiment [3] (Homo sapiens, CD4+ T, 72 h) came out at 0.057 µM.

As to `COc1nc2ccc(C(O)(c3ccc(C(F)(F)F)nc3)c3cncn3C)cc2c(Cl)c1Cc1ccc(C(F)(F)F)nc1` (single isomer, unassigned) [Example 94B, (4-Chloro-2-methoxy-3-((6-(trifluoromethyl)pyridin-3-yl)methyl)quinolin-6-yl)(1-methyl-1H-imidazol-5-yl)(6-(trifluoromethyl)pyridin-3-yl)methanol], the Kd in experiment [1] was 98 nM. Moreover, the IC50 came to 0.21 µM in experiment [2] and 1.9 µM in experiment [3]. Also, the inhibition at 6 µM in experiment [2] is 96%.

In the case of `COc1nc2ccc(C(O)(c3ccc(C#N)cc3)c3cncn3C)cc2c(C#N)c1Cc1ccc(C(F)(F)F)cc1` (single isomer, unassigned) [Example 96B, 6-((4-cyanophenyl)(hydroxy)(1-methyl-1H-imidazol-5-yl)methyl)-2-methoxy-3-(4-(trifluoromethyl)benzyl)quinoline-4-carbonitrile], in experiment [1], the equilibrium dissociation constant (Kd) was 48 nM. Besides, in experiment [2], the IC50 amounted to 0.16 µM and the inhibition at 6 µM came out at 97%. For the same compound, the IC50 in experiment [3] was 0.05 µM.

`OC(c1cccnc1)(c1cccc(Cl)c1)c1ccc2nc(Cl)c(Cc3cccs3)c(Cl)c2c1` (centres unmarked) [Example 32, (3-Chlorophenyl)(2,4-dichloro-3-(thiophen-2-ylmethyl)quinolin-6-yl)(pyridin-3-yl)methanol.TFA]: the equilibrium dissociation constant (Kd) in experiment [1] was 33 nM. Besides, in experiment [2], 0.11 µM corresponded to half-maximal inhibition (IC50) and the inhibition at 6 µM was found to be 103%. In experiment [3] (Homo sapiens, CD4+ T, 72 h), the IC50 amounted to 1.8 µM.

`Cc1cc(C(O)(c2ccc(C#N)cc2)c2cncn2C)cc2c(C#N)c(Cc3ccc(-n4cccn4)cc3)c(C#N)nc12` (single isomer, unassigned) [Example 66C, 3-(4-(1H-pyrazol-1-yl)benzyl)-6-((4-cyanophenyl)(hydroxy)(1-methyl-1H-imidazol-5-yl)methyl)-8-methylquinoline-2,4-dicarbonitrile]: the Kd in experiment [1] was 7.9 nM. In experiment [2], the “RORγt reporter Assay, % inhibition @ 6 μM” value came to 101% and it took 0.029 µM to reach half-maximal inhibition (IC50). Also, the IC50 in experiment [3] is 0.04 µM.

As to `COc1ccc(C(O)(c2ccc3nc(OC)c(Cc4ccc(-n5cccn5)cc4)c(Cl)c3c2)c2cncs2)cn1` (centres unmarked) [Example 20A, (3-(4-(1H-Pyrazol-1-yl)benzyl)-4-chloro-2-methoxyquinolin-6-yl)(6-methoxypyridin-3-yl)(thiazol-5-yl)methanol], in experiment [1], the Kd is 3.8 nM. In experiment [2], half-maximal inhibition (IC50) required 0.026 µM and the inhibition at 6 µM came out at 101%. In experiment [3] (Homo sapiens, CD4+ T, 72 h), the half-maximal inhibitory concentration (IC50) was 0.015 µM.

By Kd is commonly meant the free concentration of one partner at which half of the binding sites on the other are occupied at equilibrium, for simple one-to-one binding. As a reminder, the IC50 is the midpoint of a concentration-inhibition curve. As usually defined, the inhibition is the drop in the measured response relative to a control, in per cent.
